# Experimental data from US10660967B2, “Curcumin conjugates and methods of use thereof” (priority 2016, dated 2020).
# Where two headings read alike, the source gives them in different places.
# Columns and labels:
# [1] = tested on: PHA-stimulated splenocytes; test: Proliferative response of PHA-stimulated splenocytes (MTT assay); type: cell-based; settings: PHA 5 μg/ml, 72 hr; compounds at 5 μM (method says 10 μM); ratio of O.D. versus vehicle control
# Method in brief: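 Freshly prepared splenocytes (1×10^6 cells/well) were cultured for 72 h at 37° C with compound at 10 μM final, with or without PHA (5 μg/ml). Viability was read by MTT (4 h), with absorbance at 570 nm against 690 nm reference. Stimulation index is the OD ratio of treated versus vehicle cultures.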
# [2] = tested on: Streptococcus pyogenes ATCC19615; test: Antimicrobial MIC, agar dilution
# [3] = tested on: Staphylococcus aureus ATCC25923; test: Antimicrobial MIC, agar dilution
# gastric mucosa = test: Ulcerogenic liability (ulcer index); type: in vivo, albino mice
# Method: The ulcerogenic liability was investigated in albino mice using the standard method. […] The animals were fasted 18 h before drug administration. […] The control group animals were given saline solution only with few drops of Tween 80. […] The gastric mucosa was examined with a magnifying lens (10×) for the presence of lesions and erosions.
# 1. percentage incidence of ulcer divided by 10;
# 2. average number of ulcers per stomach; and
# 3. average severity of ulcers;
# [4] = tested on: lipopolysaccharide-stimulated peritoneal macrophages; test: Production of nitric oxide by lipopolysaccharide-stimulated peritoneal macrophages (Greiss reagent); type: cell-based; parameters: Potency (%): % inhibition of nitric oxide production relative to lipopolysaccharide-stimulated macrophages: concentration or dose not given beside the values; settings: LPS-stimulated peritoneal macrophages; for Nitric oxide (nitrite) concentration, μM (average ± SD): 24 h, nitrite by Greiss reagent
# Method in brief: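 Macrophages in nitrite-free medium with 0.1% BSA were stimulated with LPS at 0.5–10 ng/ml, some wells also receiving epinephrine, norepinephrine or dopamine at […], for 24 h at 37° C. Nitrite in supernatants was measured with Greiss reagent, 15 min at room temperature, absorbance 532 nm.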
# MCF-7 cells = test: Effect on doxorubicin induced cytotoxicity (MTT); settings: for Percentage of viable cells MCF-7 (average ± SD): 10 μM DOX in combination with 100 μM curcumin derivative; for viability at 100 µM: Homo sapiens, MCF7, 48 h
# Method: The effects of curcumin conjugates on doxorubicin induced cytotoxicity were evaluated. In order to further examine whether curcumin derivatives can enhance conventional chemotherapeutic agents, MCF-7 cells were treated with 100 μM curcumin derivatives alone or in combination with 10 μM doxorubicin (DOX) for 48 hr. Control cultures received only medium, vehicle (DMSO), or vehicle+DOX. The percentage of viable cells was determined by MTT assay according to equation (5): […]
# [5] = tested on: Pseudomonas aeruginosa ATCC27853; test: Antimicrobial MIC, agar dilution
# [6] = tested on: Candida albicans (local isolate); test: Antimicrobial MIC, agar dilution; settings: Candida albicans, read-out: Minimum inhibitory concentration (MIC)
# [7] = tested on: HepG2 (hepatocellular) carcinoma cell line; test: Anti-tumor properties, MTT; type: cell-based; settings: Homo sapiens; for activity at 100 µM: read-out: Percentage growth of tumor cell lines treated with the tested compounds (±SD)
# Method: (§1) Anti-tumor properties of curcumin conjugates were evaluated. The synthesized curcumin-amino acid conjugates and curcumin itself were screened for their antitumor properties against human tumor cell lines utilizing HepG2 (hepatocellular), MCF7 (breast), and HCT116 (colon) carcinoma cell lines by the standard mitochondrial dependent reduction of yellow MTT [3-(4,5-dimethylthiazol-2-yl)-2,5-diphenyl-tetrazolium bromide] to purple formazan technique. Cancer cells were obtained from the Egyptian Company for Production of Vaccines, Sera and Drugs (VACSERA), Cairo, Egypt. Media, chemicals and supplies for the bio-assay were obtained from Biowest, Gibco and Lonza Companies. Cells were suspended in RPMI-1640 medium for HepG2, DMEMF12 for MCF-7, and DMEM for HCT116 in addition to 1% antibiotic-antimycotic mixture (10 […] potassium penicillin, 10 […] streptomycin sulfate and […] amphotericin B), 10% fetal bovine serum and 1% L-glutamine at 37° C., under 5% CO2 and 95% humidity. Cells were seeded at a concentration of 10×10^3 cells per well in fresh complete growth medium in 96-well tissue culture microtiter plates for 24 h. Media was aspirated, 180 μL fresh medium (without serum) were added and cells were incubated with different concentrations of sample to give a final concentration of 100 μM. 0.5% DMSO was used as a negative control and doxorubicin was used as a positive control (standard reference). Triplicate wells were prepared for each individual tested compound/dose. After 72 h of incubation, the medium was aspirated, 40 μL MTT salt (2.5 mg ml^1) were added to each well and incubated for an additional 4 h at 37° C. To stop the reaction and dissolve the formed crystals, 200 μL of 10% sodium dodecyl sulfate (SDS) in deionized water were added to each well and incubated overnight at 37° C. The absorbance was then measured at 595 nm with a reference wavelength of 620 nm. Data were collected as mean values for experiments performed in triplicates for each compound which had been measured by MTT assay.
# (§2) The percentage of cell survival was calculated according to equation (4): […]
# (§3) The IC50 was determined using Graph-Pad PRISM version-5 software. Statistical calculations for determination of the mean and standard deviation (SD) values were determined by SPSS 16 software.
# [8] = tested on: MCF7 (breast) carcinoma cell line; test: Anti-tumor properties, MTT; type: cell-based; settings: Homo sapiens; for activity at 100 µM: read-out: Percentage growth of tumor cell lines treated with the tested compounds (±SD)
# Method: as §1, §2, §3
# [9] = tested on: HCT116 (colon) carcinoma cell line; test: Anti-tumor properties, MTT; type: cell-based; settings: Homo sapiens, read-out: Percentage growth of tumor cell lines treated with the tested compounds (±SD)
# Method: as §1, §2, §3
# [10] = tested on: Salmonella typhi ATCC19430; test: Antimicrobial MIC, agar dilution; type: cell-based; settings: Salmonella enterica, read-out: Minimum inhibitory concentration (MIC)
# [11] = ATCC19615, 18 h, read-out: Minimum inhibitory concentration (MIC)
# [12] = ATCC19615, read-out: Minimum inhibitory concentration (MIC)
# [13] = ATCC25923, 18 h, read-out: Minimum inhibitory concentration (MIC)
# [14] = ATCC25923, read-out: Minimum inhibitory concentration (MIC)
# [15] = orally, three successive days, 10 mg/kg indomethacin mol equivalent
# [16] = orally, three successive days, 10 mg/kg indomethacin mol equivalent, 6 animals per group
# [17] = sum of the three values, orally, three successive days, 10 mg/kg indomethacin mol equivalent
# [18] = read-out: Percentage of viable cells MCF-7 (average ± SD)
# [19] = ATCC27853, 18 h, read-out: Minimum inhibitory concentration (MIC)
# [20] = ATCC27853, read-out: Minimum inhibitory concentration (MIC)
# [21] = both, albino, mouse, in vivo, po, 10 mg/kg, 3 days
SMILES,Stimulation Index (average ± SD) [1],"MIC [2, 11]","MIC [2, 12]","MIC [3, 13]","MIC [3, 14]",% Incidence of ulcer divided by 10 (gastric mucosa; [15]),Average of ulcer number (gastric mucosa; [15]),Potency (%): % inhibition of nitric oxide production relative to lipopolysaccharide-stimulated macrophages [4],"Nitric oxide (nitrite) concentration, μM (average ± SD) [4]",Percentage of viable cells MCF-7 (average ± SD) (MCF-7 cells; 48 hr),viability at 100 µM (MCF-7 cells; [18]),"MIC [5, 19]","MIC [5, 20]",MIC ([6]; 18 h),MIC [6],"activity at 100 µM ([7]; HepG2, 100 μM, 72 h)","activity at 100 µM ([8]; MCF7, 100 μM, 72 h)","activity at 100 µM ([9]; HCT-116, HCT116, 100 μM, 72 h)",MIC ([10]; 18 h),MIC [10],other results
"COc1cc(/C=C/C(=O)CC(=O)/C=C/c2ccc(OC(=O)[C@H](CCSC)NC(=O)OCc3ccccc3)c(OC)c2)ccc1OC(=O)[C@H](CCSC)NC(=O)OCc1ccccc1 [Cbz-Met-Cur, ((1E,6E)-3,5-dioxohepta-1,6-diene-1,7-diyl)bis(2-methoxy-4,1-phenylene) (2S,2′S)-bis(2-(((benzyloxy)carbonyl)amino)-4-(methylthio)butanoate)]",1.22 ± 0.29,0.125 mg/L,0.139 µM,0.125 mg/L,0.139 µM,3.33,0.33,44.44%,15.17 ± 2.30 µM,49.74 ± 0.33,96.3 ± 3.61%,0.125 mg/L,0.139 µM,2 mg/L,2.23 µM,85.4 ± 2.4%,71%,85.6 ± 2.4%,0.125 mg/L,0.139 µM,Average severity of ulcer (gastric mucosa; [15]): 0.33; Number of animals with ulcer (gastric mucosa; [16]): 2/6; Ulcer index (gastric mucosa; [17]): 3.99
"COc1cc(/C=C/C(=O)CC(=O)/C=C/c2ccc(O)c(OC)c2)ccc1O [Curcumin, (1E,6E)-1,7-bis(4-hydroxy-3-methoxyphenyl)hepta-1,6-diene-3,5-dione]",1.52 ± 0.10,0.125 mg/L,0.339 µM,0.125 mg/L,0.339 µM,–,–,37.11%,17.18 ± 0.65 µM,–,–,0.125 mg/L,0.339 µM,0.125 mg/L,0.339 µM,–,–,–,0.125 mg/L,0.339 µM,"% Incidence of ulcer divided by 10 (gastric mucosa; [21]): 3.33; Average of ulcer number (gastric mucosa; [21]): 0.33; Average severity of ulcer (gastric mucosa; [21]): 0.33; Number of animals with ulcer (gastric mucosa; [21]): 2/6; Ulcer index (gastric mucosa; [21]): 3.99; viability at 100 µM (MCF-7 cells; read-out: Percentage of viable cells MCF-7 (average ± SD), 0 μM DOX, 100 μM curcumin derivative alone, 48 hr): 10.8 ± 4.7%; viability at 100 µM (MCF-7 cells; read-out: Percentage of viable cells MCF-7 (average ± SD), 10 μM DOX in combination with 100 μM curcumin derivative, 48 hr): 3.16 ± 1.62%; IC50 ([7]; HepG2, 72 h): 38 µM; activity at 100 µM ([7]; HepG2, 72 h): 0.4%; IC50 ([8]; MCF7, 72 h): 16 µM; activity at 100 µM ([8]; MCF7, 72 h): 4.6 ± 0.2%; activity at 100 µM ([9]; HCT-116, 72 h): 2.4 ± 3.4%"
"COc1cc(/C=C/C(=O)CC(=O)/C=C/c2ccc(OC(=O)CNC(=O)OCC3c4ccccc4-c4ccccc43)c(OC)c2)ccc1OC(=O)CNC(=O)OCC1c2ccccc2-c2ccccc21 [Fmoc-Gly-Cur, ((1E,6E)-3,5-dioxohepta-1,6-diene-1,7-diyl)bis(2-methoxy-4,1-phenylene) bis(2-((((9H-fluoren-9-yl)methoxy)carbonyl)amino)acetate)]",1.76 ± 0.20,1 mg/L,1.08 µM,1 mg/L,1.08 µM,0,0,31.43%,18.73 ± 1.29 µM,30.35,98.4 ± 1.46%,1 mg/L,1.08 µM,2 mg/L,2.16 µM,82.1 ± 7%,87 ± 1.5%,95.8 ± 6.7%,1 mg/L,1.08 µM,Average severity of ulcer (gastric mucosa; [15]): 0; Number of animals with ulcer (gastric mucosa; [16]): 0/6; Ulcer index (gastric mucosa; [17]): 0
"COc1cc(/C=C/C(=O)CC(=O)/C=C/c2ccc(OC(=O)[C@@H](NC(=O)OCC3c4ccccc4-c4ccccc43)C(C)C)c(OC)c2)ccc1OC(=O)[C@@H](NC(=O)OCC1c2ccccc2-c2ccccc21)C(C)C [Fmoc-Val-Cur, ((1E,6E)-3,5-dioxohepta-1,6-diene-1,7-diyl)bis(2-methoxy-4,1-phenylene) (2S,2′S)-bis(2-((((9H-fluoren-9-yl)methoxy)carbonyl)amino)-3-methylbutanoate)]",2.55 ± 0.13,0.5 mg/L,0.494 µM,0.25 mg/L,0.247 µM,–,–,12.46%,23.91 ± 0.87 µM,25.15,100 ± 1.95%,0.5 mg/L,0.494 µM,0.5 mg/L,0.494 µM,116 ± 3.3%,83.2 ± 0.8%,81.8 ± 5.8%,0.5 mg/L,0.494 µM,–
